For experiment [1], the target named is Vascular endothelial growth factor receptor 1 (Homo sapiens) (UniProt P17948). The experiment can be described thus: Selectivity interaction (Kinase panel (DSF assay)) EUB0001489b FLT1. On the technique in general: In DSF a fluorescence change marks the thermal transition of the protein.
Experiment [2] has as its target Serine/threonine-protein kinase PAK 6 (Homo sapiens) (UniProt Q9NQU5). Description: Selectivity interaction (KinomeScan (DiscoverX)) EUB0001619a PAK6. Conditions: at 1 µM.
Experiment [3] addresses Tyrosine-protein kinase Fer (Homo sapiens) (UniProt P16591). The experiment can be described thus: Selectivity interaction (KinomeScan (DiscoverX)) EUB0000695a FER. The following applies: at 100 nM.
Experiment [4] addresses T1, Serine/threonine-protein kinase D2 (Homo sapiens) (UniProt Q9BZL6).
T1 sequence (whole entry): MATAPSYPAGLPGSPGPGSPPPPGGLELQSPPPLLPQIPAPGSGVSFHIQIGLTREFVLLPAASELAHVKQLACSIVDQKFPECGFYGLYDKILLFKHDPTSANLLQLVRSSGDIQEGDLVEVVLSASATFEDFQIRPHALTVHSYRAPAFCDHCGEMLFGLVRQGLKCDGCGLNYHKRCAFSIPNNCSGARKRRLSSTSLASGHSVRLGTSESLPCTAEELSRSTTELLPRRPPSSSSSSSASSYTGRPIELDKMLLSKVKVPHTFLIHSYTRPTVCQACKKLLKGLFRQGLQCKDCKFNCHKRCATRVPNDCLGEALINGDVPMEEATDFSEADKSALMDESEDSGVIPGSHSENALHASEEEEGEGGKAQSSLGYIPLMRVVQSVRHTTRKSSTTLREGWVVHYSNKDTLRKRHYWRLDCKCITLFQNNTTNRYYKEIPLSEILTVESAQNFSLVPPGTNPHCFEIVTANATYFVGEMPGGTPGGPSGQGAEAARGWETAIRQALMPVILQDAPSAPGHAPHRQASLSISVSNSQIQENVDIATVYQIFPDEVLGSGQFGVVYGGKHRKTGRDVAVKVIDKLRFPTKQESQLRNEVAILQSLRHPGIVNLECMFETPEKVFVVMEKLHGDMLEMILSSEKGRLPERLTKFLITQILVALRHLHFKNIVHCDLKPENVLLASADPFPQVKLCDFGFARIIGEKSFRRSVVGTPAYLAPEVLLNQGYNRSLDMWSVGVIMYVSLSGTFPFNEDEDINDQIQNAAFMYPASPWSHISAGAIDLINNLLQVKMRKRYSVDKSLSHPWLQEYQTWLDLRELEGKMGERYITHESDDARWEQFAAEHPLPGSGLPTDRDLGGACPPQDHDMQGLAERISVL
Description: Selectivity interaction (KinomeScan (DiscoverX)) EUB0000666a PRKD2. Conditions: at 10 µM.

For experiment [5], the target named is T2, Non-receptor tyrosine-protein kinase TNK1 (Homo sapiens) (UniProt Q13470).
T2 sequence (whole entry): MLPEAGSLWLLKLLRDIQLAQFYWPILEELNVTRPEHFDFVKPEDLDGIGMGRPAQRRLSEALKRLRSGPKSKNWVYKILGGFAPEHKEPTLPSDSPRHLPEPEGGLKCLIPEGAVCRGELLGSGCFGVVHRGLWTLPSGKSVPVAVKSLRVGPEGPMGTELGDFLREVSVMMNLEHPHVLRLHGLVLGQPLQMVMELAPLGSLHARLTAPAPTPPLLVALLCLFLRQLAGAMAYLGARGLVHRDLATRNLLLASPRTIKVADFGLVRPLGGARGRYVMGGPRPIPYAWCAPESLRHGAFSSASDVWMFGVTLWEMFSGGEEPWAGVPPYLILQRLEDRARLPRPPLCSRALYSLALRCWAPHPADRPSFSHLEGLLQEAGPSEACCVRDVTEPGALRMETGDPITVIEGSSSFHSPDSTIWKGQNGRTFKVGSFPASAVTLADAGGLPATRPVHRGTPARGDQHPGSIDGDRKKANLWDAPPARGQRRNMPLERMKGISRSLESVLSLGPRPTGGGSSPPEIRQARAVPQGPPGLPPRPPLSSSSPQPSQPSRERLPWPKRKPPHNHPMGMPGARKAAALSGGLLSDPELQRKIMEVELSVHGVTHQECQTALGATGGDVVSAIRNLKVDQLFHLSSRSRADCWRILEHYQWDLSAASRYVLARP
The experiment can be described thus: Selectivity interaction (KinomeScan (DiscoverX)) EUB0000666a TNK1. Conditions: at 10 µM.

The target of experiment [6] is Macrophage colony-stimulating factor 1 receptor (Homo sapiens) (UniProt P07333). The experiment can be described thus: Selectivity interaction (KinomeScan (DiscoverX)) EUB0000666a CSF1R. The following applies: at 10 µM.
Sequence of Macrophage colony-stimulating factor 1 receptor (Homo sapiens) (P07333 whole entry): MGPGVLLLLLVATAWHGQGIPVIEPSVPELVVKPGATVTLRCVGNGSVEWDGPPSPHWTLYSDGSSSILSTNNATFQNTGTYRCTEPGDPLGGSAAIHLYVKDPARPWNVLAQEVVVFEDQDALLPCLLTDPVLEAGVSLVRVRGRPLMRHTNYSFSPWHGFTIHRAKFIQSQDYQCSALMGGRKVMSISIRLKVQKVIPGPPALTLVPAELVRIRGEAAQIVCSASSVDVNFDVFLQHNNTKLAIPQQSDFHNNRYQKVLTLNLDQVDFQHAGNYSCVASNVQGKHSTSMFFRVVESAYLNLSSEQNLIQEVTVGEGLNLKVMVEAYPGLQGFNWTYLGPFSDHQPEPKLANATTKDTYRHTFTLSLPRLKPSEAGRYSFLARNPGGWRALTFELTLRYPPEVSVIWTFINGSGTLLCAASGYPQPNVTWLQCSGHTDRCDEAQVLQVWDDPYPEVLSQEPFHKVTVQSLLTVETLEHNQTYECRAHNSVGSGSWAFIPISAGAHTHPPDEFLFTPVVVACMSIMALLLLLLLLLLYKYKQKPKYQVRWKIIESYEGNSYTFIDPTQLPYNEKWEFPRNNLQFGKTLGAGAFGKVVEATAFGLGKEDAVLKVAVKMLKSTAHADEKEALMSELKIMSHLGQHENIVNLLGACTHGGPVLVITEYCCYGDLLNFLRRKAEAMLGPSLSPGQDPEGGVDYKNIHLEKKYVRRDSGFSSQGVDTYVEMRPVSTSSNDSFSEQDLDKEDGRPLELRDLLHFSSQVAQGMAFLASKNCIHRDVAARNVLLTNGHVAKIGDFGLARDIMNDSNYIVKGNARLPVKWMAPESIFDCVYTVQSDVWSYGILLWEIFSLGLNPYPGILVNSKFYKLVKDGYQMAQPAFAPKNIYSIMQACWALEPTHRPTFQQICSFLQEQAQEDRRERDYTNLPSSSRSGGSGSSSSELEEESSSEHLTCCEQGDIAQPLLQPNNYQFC
Experiment [7] has as its target Mitogen-activated protein kinase kinase kinase 9 (Homo sapiens) (UniProt P80192). Description: Selectivity interaction (Kinase panel (Invitrogen)) EUB0000639a MAP3K9. Conditions: at 200 nM.
The target in experiment [8] is T3, Serine/threonine-protein kinase D3 (Homo sapiens) (UniProt O94806).
T3 sequence (whole entry): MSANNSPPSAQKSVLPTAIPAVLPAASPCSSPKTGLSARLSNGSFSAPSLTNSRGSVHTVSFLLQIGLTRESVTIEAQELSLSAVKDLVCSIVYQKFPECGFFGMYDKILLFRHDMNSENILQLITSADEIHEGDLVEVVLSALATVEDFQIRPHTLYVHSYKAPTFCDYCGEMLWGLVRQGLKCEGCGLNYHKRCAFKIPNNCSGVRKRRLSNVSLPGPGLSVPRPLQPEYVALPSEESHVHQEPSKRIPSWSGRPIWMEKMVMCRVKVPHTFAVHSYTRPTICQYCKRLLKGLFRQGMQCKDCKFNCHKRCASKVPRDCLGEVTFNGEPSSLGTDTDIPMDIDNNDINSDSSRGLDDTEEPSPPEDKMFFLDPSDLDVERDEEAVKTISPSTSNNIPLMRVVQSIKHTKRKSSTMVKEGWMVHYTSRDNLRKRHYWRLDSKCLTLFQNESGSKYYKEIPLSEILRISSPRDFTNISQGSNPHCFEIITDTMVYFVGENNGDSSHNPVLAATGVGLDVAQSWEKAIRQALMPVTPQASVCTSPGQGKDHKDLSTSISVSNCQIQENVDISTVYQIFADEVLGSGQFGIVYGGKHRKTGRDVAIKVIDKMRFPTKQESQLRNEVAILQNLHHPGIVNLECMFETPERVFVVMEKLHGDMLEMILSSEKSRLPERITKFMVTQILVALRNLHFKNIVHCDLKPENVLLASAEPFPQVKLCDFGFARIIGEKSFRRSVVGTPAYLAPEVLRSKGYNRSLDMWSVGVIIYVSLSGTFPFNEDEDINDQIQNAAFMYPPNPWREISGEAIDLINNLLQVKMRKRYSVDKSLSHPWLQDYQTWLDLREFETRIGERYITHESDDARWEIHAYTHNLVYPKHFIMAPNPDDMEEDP
Description: Selectivity interaction (ActivX KiNativ screen (kinase selectivity in THP-1 cell lysates)) EUB0000639a PRKD3. Type of experiment: subcellular. The following applies: lysate, at 1 µM.

The target of experiment [9] is Tyrosine-protein kinase Lyn (Homo sapiens, UniProt P07948). The experiment can be described thus: Selectivity interaction (ActivX KiNativ screen (kinase selectivity in THP-1 cell lysates)) EUB0000639a LYN. Type of experiment: subcellular. Conditions: lysate, at 1 µM.

Each structure is given as a SMILES string.

Sequence of Tyrosine-protein kinase Fer (Homo sapiens) (P16591 whole entry, looked up): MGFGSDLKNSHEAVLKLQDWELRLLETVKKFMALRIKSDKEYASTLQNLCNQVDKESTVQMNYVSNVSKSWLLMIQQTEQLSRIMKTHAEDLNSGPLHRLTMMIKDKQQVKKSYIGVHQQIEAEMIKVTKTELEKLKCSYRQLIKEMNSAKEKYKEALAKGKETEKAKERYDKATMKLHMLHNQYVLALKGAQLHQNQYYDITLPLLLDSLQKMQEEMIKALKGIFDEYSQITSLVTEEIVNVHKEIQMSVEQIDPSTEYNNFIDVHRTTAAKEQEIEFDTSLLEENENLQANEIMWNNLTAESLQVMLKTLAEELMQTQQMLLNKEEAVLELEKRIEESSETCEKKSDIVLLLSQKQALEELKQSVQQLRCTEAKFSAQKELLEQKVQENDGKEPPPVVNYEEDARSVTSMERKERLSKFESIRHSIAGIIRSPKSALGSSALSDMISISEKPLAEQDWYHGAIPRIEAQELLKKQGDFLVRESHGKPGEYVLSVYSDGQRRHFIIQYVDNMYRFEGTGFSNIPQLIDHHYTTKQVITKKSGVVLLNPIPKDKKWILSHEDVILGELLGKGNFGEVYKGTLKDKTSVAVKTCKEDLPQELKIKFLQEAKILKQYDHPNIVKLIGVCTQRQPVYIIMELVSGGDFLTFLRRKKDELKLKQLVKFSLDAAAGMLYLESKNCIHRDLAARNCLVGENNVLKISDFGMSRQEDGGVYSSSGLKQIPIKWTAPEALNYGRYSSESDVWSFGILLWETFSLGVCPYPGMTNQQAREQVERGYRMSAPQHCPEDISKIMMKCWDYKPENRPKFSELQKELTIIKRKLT
Sequence of Vascular endothelial growth factor receptor 1 (Homo sapiens) (P17948 whole entry): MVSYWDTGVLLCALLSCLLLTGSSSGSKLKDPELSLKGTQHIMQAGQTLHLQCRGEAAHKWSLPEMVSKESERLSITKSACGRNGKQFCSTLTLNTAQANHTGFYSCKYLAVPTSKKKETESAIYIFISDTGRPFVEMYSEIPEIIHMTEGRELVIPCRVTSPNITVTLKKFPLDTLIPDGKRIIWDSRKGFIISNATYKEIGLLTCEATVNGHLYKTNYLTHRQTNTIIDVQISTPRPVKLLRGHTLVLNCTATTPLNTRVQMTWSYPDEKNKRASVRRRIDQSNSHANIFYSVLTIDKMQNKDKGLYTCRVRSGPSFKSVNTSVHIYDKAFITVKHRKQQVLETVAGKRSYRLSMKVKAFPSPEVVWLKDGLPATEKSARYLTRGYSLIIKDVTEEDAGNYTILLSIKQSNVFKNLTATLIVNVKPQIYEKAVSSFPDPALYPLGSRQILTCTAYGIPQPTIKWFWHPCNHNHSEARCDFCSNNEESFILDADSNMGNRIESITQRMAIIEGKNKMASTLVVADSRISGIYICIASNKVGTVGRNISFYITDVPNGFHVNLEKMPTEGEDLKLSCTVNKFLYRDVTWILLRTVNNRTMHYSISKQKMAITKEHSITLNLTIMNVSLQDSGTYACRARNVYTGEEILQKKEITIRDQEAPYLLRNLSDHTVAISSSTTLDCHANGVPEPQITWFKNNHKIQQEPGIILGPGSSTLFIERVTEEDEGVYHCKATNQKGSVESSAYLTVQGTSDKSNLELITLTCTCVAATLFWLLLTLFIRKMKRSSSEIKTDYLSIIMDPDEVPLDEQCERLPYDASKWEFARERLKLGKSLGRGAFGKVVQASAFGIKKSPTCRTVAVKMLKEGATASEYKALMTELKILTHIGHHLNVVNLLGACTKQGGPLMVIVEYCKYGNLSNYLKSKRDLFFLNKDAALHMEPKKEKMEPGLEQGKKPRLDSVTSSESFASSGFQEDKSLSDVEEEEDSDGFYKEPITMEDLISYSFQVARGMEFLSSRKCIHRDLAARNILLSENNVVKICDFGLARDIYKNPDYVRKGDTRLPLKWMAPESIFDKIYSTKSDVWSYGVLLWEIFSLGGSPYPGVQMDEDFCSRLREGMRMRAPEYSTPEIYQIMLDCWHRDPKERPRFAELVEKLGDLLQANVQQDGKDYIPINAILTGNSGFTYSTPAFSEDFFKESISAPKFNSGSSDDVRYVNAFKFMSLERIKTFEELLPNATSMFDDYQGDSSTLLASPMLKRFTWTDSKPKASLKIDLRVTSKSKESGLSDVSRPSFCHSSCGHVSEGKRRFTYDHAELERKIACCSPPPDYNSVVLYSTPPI
Sequence of Serine/threonine-protein kinase PAK 6 (Homo sapiens) (Q9NQU5 whole entry, looked up): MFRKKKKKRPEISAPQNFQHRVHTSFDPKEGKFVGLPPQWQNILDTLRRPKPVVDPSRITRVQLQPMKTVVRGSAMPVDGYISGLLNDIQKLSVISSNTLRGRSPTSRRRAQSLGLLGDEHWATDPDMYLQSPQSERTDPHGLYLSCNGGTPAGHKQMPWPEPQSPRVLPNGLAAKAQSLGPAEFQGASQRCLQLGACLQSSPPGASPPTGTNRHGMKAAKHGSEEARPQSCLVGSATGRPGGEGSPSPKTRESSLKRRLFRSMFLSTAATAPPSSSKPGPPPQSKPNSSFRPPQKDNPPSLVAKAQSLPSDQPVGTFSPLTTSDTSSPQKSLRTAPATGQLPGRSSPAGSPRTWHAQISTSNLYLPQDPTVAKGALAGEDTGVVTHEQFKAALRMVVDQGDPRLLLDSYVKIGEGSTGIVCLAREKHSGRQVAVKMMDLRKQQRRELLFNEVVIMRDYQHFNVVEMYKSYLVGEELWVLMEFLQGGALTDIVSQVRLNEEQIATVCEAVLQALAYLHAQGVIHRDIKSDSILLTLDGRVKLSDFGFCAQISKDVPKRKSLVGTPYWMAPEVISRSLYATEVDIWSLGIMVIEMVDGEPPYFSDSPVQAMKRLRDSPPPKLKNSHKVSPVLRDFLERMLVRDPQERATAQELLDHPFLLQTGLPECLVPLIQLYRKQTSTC
Sequence of Mitogen-activated protein kinase kinase kinase 9 (Homo sapiens) (P80192 whole entry, looked up): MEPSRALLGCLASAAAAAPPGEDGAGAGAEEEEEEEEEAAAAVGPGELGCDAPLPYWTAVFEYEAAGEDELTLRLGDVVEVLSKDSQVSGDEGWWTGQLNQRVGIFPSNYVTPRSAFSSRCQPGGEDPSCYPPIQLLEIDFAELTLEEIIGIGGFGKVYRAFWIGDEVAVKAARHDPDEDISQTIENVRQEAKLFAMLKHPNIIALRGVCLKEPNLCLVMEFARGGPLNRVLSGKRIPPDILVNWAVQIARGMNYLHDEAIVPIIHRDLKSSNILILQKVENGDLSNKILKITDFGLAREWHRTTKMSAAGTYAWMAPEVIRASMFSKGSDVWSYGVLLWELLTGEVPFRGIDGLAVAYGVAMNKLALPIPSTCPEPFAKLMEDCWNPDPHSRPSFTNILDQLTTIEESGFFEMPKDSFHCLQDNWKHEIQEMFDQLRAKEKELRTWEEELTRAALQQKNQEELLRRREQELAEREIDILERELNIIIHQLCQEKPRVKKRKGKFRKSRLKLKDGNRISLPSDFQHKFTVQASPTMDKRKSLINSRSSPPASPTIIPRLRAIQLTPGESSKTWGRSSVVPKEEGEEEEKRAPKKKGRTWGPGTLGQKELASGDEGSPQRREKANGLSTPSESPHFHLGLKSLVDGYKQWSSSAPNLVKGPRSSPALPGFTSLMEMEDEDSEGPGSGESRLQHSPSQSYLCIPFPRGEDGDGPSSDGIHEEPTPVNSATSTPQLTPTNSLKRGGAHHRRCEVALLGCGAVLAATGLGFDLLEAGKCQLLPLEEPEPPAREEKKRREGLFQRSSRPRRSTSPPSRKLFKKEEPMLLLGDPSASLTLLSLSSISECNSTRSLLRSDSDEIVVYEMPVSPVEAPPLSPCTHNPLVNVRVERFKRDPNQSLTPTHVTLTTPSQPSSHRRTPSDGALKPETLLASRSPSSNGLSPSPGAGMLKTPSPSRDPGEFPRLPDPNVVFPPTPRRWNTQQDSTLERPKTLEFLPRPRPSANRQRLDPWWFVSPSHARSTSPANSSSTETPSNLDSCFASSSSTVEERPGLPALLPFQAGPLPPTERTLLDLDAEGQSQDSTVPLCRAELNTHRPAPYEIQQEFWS

In [1], `CN1CCN(C(=O)c2ccc3cc2OCCOCCNc2ccn4ncc-3c4n2)CC1` displayed a dTM of 2.9 K.

The molecule `N#Cc1cccc(-c2c[nH]c3ncnc(N4CCOCC4)c23)c1` showed a % of control in experiment [2] of 66%.

Turning to `Cc1cc(F)c(C(=O)Nc2cccc(-c3nncn3C(C)C)n2)cc1-n1cnc(C2CC2)c1`, the % of control in experiment [3] was determined as 72%.

As to `O=C(NOC[C@H](O)CO)c1ccc(F)c(F)c1Nc1ccc(I)cc1F`, the % of control in experiment [4] is 100%; in [5], 68%; in experiment [6], 80%.

On to `CC[C@@H]1[C@H](F)C(=O)N[C@@H]1COc1nccc2cc(C(N)=O)c(OC)cc12` [ZIMLOVISERTIB], for which the % of inhibition was 5.9% in experiment [7], 1.2% in experiment [8] and -14.1% in experiment [9].

Values taken from ChEMBL document CHEMBL5465560, “Selectivity Literature for EUbOPEN Chemogenomic Library” (2024).
